# Tested on: rice blast fungi
# Type: in vivo, Pyricularia grisea
row,Molecule,Inhibiting Ratio (%) (at 250 ppm)
1,"2-(2,4-dichloromethylphenylimino)-3-methyl-4-[N-(3-chlorophenyl)carbamoylmethyl]-1,3-thiazol-4-ine hydrobromide [Compound 60]",100
2,"2-(2,4-difluorophenylimino)-3-methyl-4-[N-(methoxyphenyl)carbamoylmethyl]-1,3-thiazol-4-ine [Compound 340]",94
3,"2-(2-fluorophenylimino)-3-methyl-4-[N-(methoxyphenyl)carbamoylmethyl]-1,3-thiazol-4-ine [Compound 338]",97
4,"2-(3-chloro-4-fluorophenylimino)-3-methyl-4-[N-(methoxyphenyl)carbamoylmethyl]-1,3-thiazol-4-ine [Compound 336]",96
5,"2-(3-fluorophenylimino)-3-methyl-4-[N-(methoxyphenyl)carbamoylmethyl]-1,3-thiazol-4-ine [Compound 337]",95
6,"Br.Cn1c(CC(=O)Nc2ccccc2)csc1=Nc1cccc(C(F)(F)F)c1 [Compound 1, 2-(3-trifluoromethylphenylimino)-3-methyl-4-(N-phenylcarbamoylmethyl)-1,3-thiazol-4-ine hydrobromide]",75
7,"Br.Cn1c(CC(=O)Nc2ccccc2)csc1=Nc1ccc(C(F)(F)F)cc1 [Compound 2, 2-(4-trifluoromethylphenylimino)-3-methyl-4-(N-phenylcarbamoylmethyl)-1,3-thiazol-4-ine hydrobromide]",86
8,"Br.Cn1c(CC(=O)Nc2ccccc2)csc1=Nc1ccc(Oc2ccccc2)cc1 [Compound 3, 2-(4-phenoxyphenylimino)-3-methyl-4-(N-phenylcarbamoylmethyl)-1,3-thiazol-4-ine hydrobromide]",95
9,"Br.Cc1ccc(NC(=O)Cc2csc(=Nc3cc(Cl)cc(Cl)c3)n2C)cc1 [Compound 4, 2-(3,5-dichlorophenylimino)-3-methyl-4-[N-(4-methylphenyl)carbamoylmethyl]-1,3-thiazol-4-ine hydrobromide]",83
10,"Br.Cc1ccc(NC(=O)Cc2csc(=Nc3cccc(C(F)(F)F)c3)n2C)cc1 [Compound 6, 2-(3-trifluoromethylphenylimino)-3-methyl-4-[N-(4-methylphenyl)carbamoylmethyl]-1,3-thiazol-4-ine hydrobromide]",99
11,"Br.Cn1c(CC(=O)Nc2cccc(C(F)(F)F)c2)csc1=Nc1cccc(C(F)(F)F)c1 [Compound 7, 2-(3-trifluoromethylphenylimino)-3-methyl-4-[N-(3-trifluoromethylphenyl)carbamoylmethyl]-1,3-thiazol-4-ine hydrobromide]",97
12,"Br.Cn1c(CC(=O)Nc2cccc(C(F)(F)F)c2)csc1=Nc1ccc(C(F)(F)F)cc1 [Compound 8, 2(4-trifluoromethylphenylimino)-3-methyl-4-[N-(3-trifluoromethylphenyl)carbamoylmethyl]-1,3-thiazol-4-ine hydrobromide]",90
13,"Br.Cc1ccc(NC(=O)Cc2csc(=Nc3ccc(Oc4ccccc4)cc3)n2C)cc1 [Compound 13, 2-(4-phenoxyphenylimino)-3-methyl-4-[N-(4-methylphenyl)carbamoylmethyl]-1,3-thiazol-4-ine hydrobromide]",99
14,"Br.Cc1ccc(NC(=O)Cc2csc(=Nc3ccc(C(F)(F)F)cc3)n2C)cc1 [Compound 14, 2-(4-trifluoromethylphenylimino)-3-methyl-4-[N-(4-methylphenyl)carbamoylmethyl]-1,3-thiazol-4-ine hydrobromide]",99
15,"Br.Cc1ccc(NC(=O)Cc2csc(=Nc3cccc([N+](=O)[O-])c3)n2C)cc1 [Compound 15, 2-(3-nitrophenylimino)-3-methyl-4-[N-(4-methylphenyl)carbamoylmethyl]-1,3-thiazol-4-ine hydrobromide]",91
